Reference: patent publication EP2676962A1, “Derivatives of 1-aminoalkylphosphonate diaryl esters, method of 1-aminoalkylphosphonate diaryl ester derivatives preparation and their application” (priority 2012, dated 2013)
Where two headings read alike, the source gives them in different places.

Experiments:
Format in all cases: biochemical
[1] = biological target: T1, human neutrophil elastase (HNE) (Homo sapiens, UniProt P08246); experiment: Inhibitory activity toward human neutrophil elastase, fluorogenic substrate, microplate reader
T1 sequence (P08246 30-267): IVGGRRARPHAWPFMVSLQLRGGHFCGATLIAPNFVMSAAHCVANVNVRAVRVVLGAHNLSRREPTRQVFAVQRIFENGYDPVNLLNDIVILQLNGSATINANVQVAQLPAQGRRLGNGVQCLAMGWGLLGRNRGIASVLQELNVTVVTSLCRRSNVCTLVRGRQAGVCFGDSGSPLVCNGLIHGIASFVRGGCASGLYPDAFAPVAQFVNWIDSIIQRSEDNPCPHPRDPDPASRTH
Description: (§1) The biological activity of peptidyl derivatives of phosphonic analogs of valine, alanine, phenylalanine, 4-guanidinephenylglycine, leucine, and 1-aminobutyric acid, containing the N-terminal biotin residue were tested for their ability to inhibit proteolytic activity of selected serine proteases, and the control cysteine proteases. All tests were performed using a microplate reader. As enzyme substrates fluorescent peptides were used. The method to measure the activity of the compounds obtained are described below for each of the enzymes tested: human neutrophil elastase (HNE), porcine pancreatic elastase (PPE), subtilisin (Sub), cathepsin G (CatG), proteinase 3 (PR3), chymotrypsin (ChTry) trypsin (Try), papain (Pap) and cathepsin L (CatL). Measurement of the inhibitory activity was performed at different inhibitor concentrations ranging from 12.5 nM to 2000nm.
Measurement of inhibitory activity of compounds toward human neutrophil elastase (HNE).
The inhibitory activity assay is performed at 37°C in 0,01M HEPES, 0,5M NaCl, 0,03% Triton X-100 buffer, pH 7,5, within 10 min after initial pre-incubation of the enzyme with inhibitor tested at 37°C for 10 min. The enzyme concentration is 0,0025U/ml. Substrate used Me-Suc-Ala-Ala-Pro-Val-AFC at 25µM. Measurement is taken at an excitation wavelength of 400nm and 505nm emission.
(§2) The IC50 value is the concentration of inhibitor required to inhibit half of the enzyme activity after 10 minutes incubation.

[2] = biological target: porcine pancreatic elastase (PPE) (Sus scrofa, UniProt P00772); experiment: Inhibitory activity toward porcine pancreatic elastase, fluorogenic substrate, microplate reader
porcine pancreatic elastase (PPE), sequence (P00772 27-266): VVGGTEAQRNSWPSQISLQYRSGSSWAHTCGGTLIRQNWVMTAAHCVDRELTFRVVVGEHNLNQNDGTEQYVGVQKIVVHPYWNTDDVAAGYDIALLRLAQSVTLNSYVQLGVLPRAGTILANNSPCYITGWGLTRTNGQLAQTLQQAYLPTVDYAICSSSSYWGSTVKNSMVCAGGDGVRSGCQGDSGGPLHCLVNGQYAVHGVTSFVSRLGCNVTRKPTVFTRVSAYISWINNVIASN
Description: as §1
Measurement of inhibitory activity of compounds toward porcine pancreatic elastase (PPE).
(§3) The inhibitory activity assay is performed at 37°C in 0,01M Tris-HCl, 0,05% Triton X-100 buffer, pH 8,5, within 10 min after initial pre-incubation of the enzyme with inhibitor tested at 37°C for 10 min. The enzyme concentration is 60nM. Substrate used Me-Suc-Ala-Ala-Pro-Val-AMC at 100µM. Measurement is taken at an excitation wavelength of 350nm and 460nm emission.
as §2

proteinase 3 (PR3) = biological target: T2, proteinase 3 (PR3) (Homo sapiens, UniProt P24158); experiment: Inhibitory activity toward proteinase 3, fluorogenic substrate, microplate reader
T2 sequence (P24158 28-248): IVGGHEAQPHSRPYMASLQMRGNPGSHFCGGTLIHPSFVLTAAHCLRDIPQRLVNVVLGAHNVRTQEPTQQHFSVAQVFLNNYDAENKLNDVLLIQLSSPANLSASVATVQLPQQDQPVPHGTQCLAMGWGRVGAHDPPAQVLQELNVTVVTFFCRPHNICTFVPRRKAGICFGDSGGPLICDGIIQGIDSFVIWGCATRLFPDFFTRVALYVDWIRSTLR
Description: as §1
Measurement of inhibitory activity of compounds toward proteinase 3(PR3).
(§4) The inhibitory activity assay is performed at 37°C in 0,1M Tric-HCl, 0,5M NaCl buffer, pH 7,5, within 10 min after initial pre-incubation of the enzyme with inhibitor tested at 37°C for 10 min. The enzyme concentration is 17nM. Substrate used Abz-Tyr-Tyr-Abu-Anb-NH2 at 30µM. Measurement is taken at an excitation wavelength of 325nm and 400nm emission.
as §2

cathepsin G (CatG) = biological target: T3, cathepsin G (CatG) (Homo sapiens, UniProt P08311); experiment: Inhibitory activity toward cathepsin G, fluorogenic substrate, microplate reader
T3 sequence (P08311 21-244): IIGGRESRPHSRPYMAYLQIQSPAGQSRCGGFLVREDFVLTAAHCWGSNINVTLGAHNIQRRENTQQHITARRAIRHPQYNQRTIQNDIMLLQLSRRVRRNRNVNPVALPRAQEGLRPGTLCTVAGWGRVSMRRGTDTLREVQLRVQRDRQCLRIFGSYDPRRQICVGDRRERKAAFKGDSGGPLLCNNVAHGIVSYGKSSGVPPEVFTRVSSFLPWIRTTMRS
Description: as §1
Measurement of inhibitory activity of compounds toward cathepsin G (CatG).
as §4, with “100nM.” for “17nM.”, “MCA-Phe-Val-Thr-Gnf-Ser-Trp-Anb-NH2” for “Abz-Tyr-Tyr-Abu-Anb-NH2”, “2.5µM.” for “30µM.”
as §2

subtilisin (Sub) = subtilisin (Sub) (Bacillus licheniformis, UniProt P00780); experiment: Inhibitory activity toward subtilisin, fluorogenic substrate, microplate reader; details: for Sub Kobs/[I]: 10 min pre-incubation at 37°C, pH 7,5, Me-Suc-Ala-Ala-Pro-Phe-AMC 5µM, NI = brak inhibicji (no inhibition)
subtilisin (Sub), sequence (P00780 106-379): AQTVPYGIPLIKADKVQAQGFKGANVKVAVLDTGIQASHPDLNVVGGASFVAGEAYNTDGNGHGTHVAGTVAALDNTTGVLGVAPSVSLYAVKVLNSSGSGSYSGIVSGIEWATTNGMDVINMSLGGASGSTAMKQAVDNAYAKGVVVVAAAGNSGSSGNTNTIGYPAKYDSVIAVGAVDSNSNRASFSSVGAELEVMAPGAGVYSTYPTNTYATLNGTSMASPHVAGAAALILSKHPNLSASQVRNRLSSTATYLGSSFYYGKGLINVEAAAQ
Description: as §1
Measurement of inhibitory activity of compounds toward subtilisin (Sub).
as §3, with “0,05M” for “0,01M”, “1M NaCl, 0,01%” for “0,05%”, “7,5,” for “8,5,”, “5nM.” for “60nM.”, “Me-Suc-Ala-Ala-Pro-Phe-AMC” for “Me-Suc-Ala-Ala-Pro-Val-AMC”, “5µM.” for “100µM.”
as §2

chymotrypsin (ChTry) = chymotrypsin (ChTry) (Bos taurus, UniProt P00766); experiment: Inhibitory activity toward chymotrypsin, fluorogenic substrate, microplate reader; details: 10 min pre-incubation at 37°C, pH 7,5, Suc-Ala-Ala-Pro-Phe-AMC 5µM; NI = brak inhibicji (no inhibition)
Description: as §1
Measurement of inhibitory activity of compounds toward […] (ChyTry).
as §4, with “HEPES,” for “Tric-HCl,”, “3nM.” for “17nM.”, “Suc-Ala-Ala-Pro-Phe-AMC” for “Abz-Tyr-Tyr-Abu-Anb-NH2”, “5µM.” for “30µM.”, “350nm” for “325nm”, “460nm” for “400nm”
as §2

[3] = 10 min pre-incubation at 37°C, pH 7,5, Me-Suc-Ala-Ala-Pro-Val-AFC 25µM, NI = brak inhibicji (no inhibition)
[4] = 10 min pre-incubation at 37°C, pH 8,5, Me-Suc-Ala-Ala-Pro-Val-AMC 100µM, NI = brak inhibicji (no inhibition)
[5] = read-out: Cat G IC50, 10 min pre-incubation at 37°C, pH 7,5, MCA-Phe-Val-Thr-Gnf-Ser-Trp-Anb-NH2 2.5µM, NI = brak inhibicji (no inhibition)
[6] = read-out: HNE IC50, 10 min pre-incubation at 37°C, pH 7,5, Me-Suc-Ala-Ala-Pro-Val-AFC 25µM, NI = brak inhibicji (no inhibition)
[7] = read-out: PPE IC50, 10 min pre-incubation at 37°C, pH 8,5, Me-Suc-Ala-Ala-Pro-Val-AMC 100µM, NI = brak inhibicji (no inhibition)
[8] = read-out: PR3 IC50, 10 min pre-incubation at 37°C, pH 7,5, Abz-Tyr-Tyr-Abu-Anb-NH2 30µM, NI = brak inhibicji (no inhibition)
[9] = 10 min pre-incubation at 37°C, pH 7,5, MCA-Phe-Val-Thr-Gnf-Ser-Trp-Anb-NH2 2.5µM, NI = brak inhibicji (no inhibition)

Row | Compound | IC50 [1] | HNE Kobs/[I] [1, 3] | IC50 [2] | PPE Kobs/[I] [2, 4] | IC50 (proteinase 3 (PR3)) | PR3 Kobs/[I] (proteinase 3 (PR3); 10 min pre-incubation at 37°C, pH 7,5, Abz-Tyr-Tyr-Abu-Anb-NH2 30µM, NI = brak inhibicji (no inhibition)) | IC50 (cathepsin G (CatG); [5]) | IC50 (subtilisin (Sub)) | Sub Kobs/[I] (subtilisin (Sub)) | IC50 [1, 6] | IC50 [2, 7] | IC50 (proteinase 3 (PR3); [8]) | IC50 (cathepsin G (CatG)) | Cat G Kobs/[I] (cathepsin G (CatG); [9]) | ChyTr Kobs/[I] (chymotrypsin (ChTry))
1 | CC(C)C(NC(=O)CCCCC1SCC2NC(=O)NC21)C(=O)N1CCCC1C(=O)NC(C(C)C)P(=O)(Oc1ccccc1)Oc1ccccc1 (centres unmarked) [Compound 2, diphenyl 2-methyl-1-(1-(3-methyl-2-(5-(2-oxohexahydro-1H-thieno[3,4-d]imidazol-4-yl)pentanamido)butanoyl)pyrrolidine-2-carboxamido)propylphosphonate] | 6.5 ± 0.3 nM | 1.8*10^5 M^-1S^-1 | 246 ± 30.5 nM | 4.7*10^3 M^-1S^-1 | 728 ± 44 nM | 3.2*10^3 M^-1S^-1 | > 5000 nM | 415 ± 17 nM | 2.8*10^3 M^-1S^-1 |  |  |  |  |  | 
2 | CC(C)C(NC(=O)CCCCC1SCC2NC(=O)NC21)C(=O)N1CCCC1C(=O)NC(Cc1ccccc1)P(=O)(Oc1ccccc1)Oc1ccccc1 (centres unmarked) [Compound 3, diphenyl 1-(1-(3-methyl-2-(5-(2-oxohexahydro-1H-thieno[3,4-d]imidazol-4-yl)pentanamido)butanoyl)pyrrolidine-2-carboxamido)-2-phenylethylphosphonate] |  |  |  |  |  |  |  | 11.6 ± 0.2 nM | 1.0*10^5 M^-1S^-1 | > 5000 nM | > 5000 nM | > 5000 nM | 258 ± 33 nM | 4.5*10^3 M^-1S^-1 | 5.6*10^4 M^-1S^-1
3 | CSc1ccc(OP(=O)(Oc2ccc(SC)cc2)C(C)NC(=O)C2CCCN2C(=O)C(NC(=O)CCCCC2SCC3NC(=O)NC32)C(C)C)cc1 (centres unmarked) [Compound 4, bis(4-(methylthio)phenyl) 1-(1-(3-methyl-2-(5-(2-oxohexahydro-1H-thieno[3,4-d]imidazol-4-yl)pentanamido)butanoyl)pyrrolidine-2-carboxamido)ethylphosphonate] | 5.55 ± 0.25 nM | 2.1*10^5 M^-1S^-1 | 136 ± 7.5 nM | 8.5*10^3 M^-1S^-1 |  |  | > 5000 nM | 40.2 ± 0.01 nM | 2.9*10^4 M^-1S^-1 |  |  | > 5000 nM |  |  | 
4 | COc1ccc(OP(=O)(Oc2ccc(OC)cc2)C(CC(C)C)NC(=O)C2CCCN2C(=O)C(NC(=O)CCCCC2SCC3NC(=O)NC32)C(C)C)cc1 (centres unmarked) [Compound 5, bis(4-methoxyphenyl) (3-methyl-1-(1-(3-methyl-2-(5-(2-oxohexahydro-1H-thieno[3,4-d]imidazol-4-yl)pentanamido)butanoyl)pyrrolidine-2-carboxamido)butyl)phosphonate] |  |  | 5000 nM | 2*10^2 M^-1S^-1 |  |  | > 5000 nM | 47.9 ± 0.57 nM | 2.4*10^4 M^-1S^-1 | > 5000 nM |  | > 5000 nM |  |  | 7.4*10^3 M^-1S^-1
5 | CC(C)C(NC(=O)CCC(=O)NCCCCCNC(=O)CCCCC1SCC2NC(=O)NC21)C(=O)N1CCCC1C(=O)NC(Cc1ccccc1)P(=O)(Oc1ccccc1)Oc1ccccc1 (centres unmarked) [Compound 10, diphenyl (1-(1-(3-methyl-2-(4-oxo-4-((5-(5-(2-oxohexahydro-1H-thieno[3,4-d]imidazol-4-yl)pentanamido)pentyl)amino)butanamido)butanoyl)pyrrolidine-2-carboxamido)-2-phenylethyl)phosphonate] |  |  |  |  |  |  |  | 39.9 ± 4.6 nM | 2.9*10^4 M^-1S^-1 | > 5000 nM | > 5000 nM | > 5000 nM | 300 ± 0.5 nM | 3.8*10^3 M^-1S^-1 | 7.0*10^4 M^-1S^-1
